Experimental data taken from patent US11192890B2, “FGFR kinase inhibitors and pharmaceutical uses” (AUCKLAND UNISERVICES LIMITED, priority 2017, dated 2021).
pIC50: −log10 of the molar value. Where two headings read alike, the source gives them in different places.

What was measured:
[1] = test system: FGFR1 in H520 cells (phospho-ERK1/2); assay: Drug washout Western blot assay, H520 cells; assay type: cell-based; conditions: H520; for reversible or irreversible inhibition of FGFR1 in cells / concentration required to suppress FGFR1 signalling through phospho-ERK1/2: 2 hours exposure; for reversible or irreversible inhibition of FGFR1 in cells: 100, 300 and 600 nM, with and without washout; for concentration required to suppress FGFR1 signalling through phospho-ERK1/2: tested at 100, 300 and 600 nM; for phospho-ERK1/2 after extensive drug washout: 30 min, washout prior to FGF-stimulation
SW780 cells = assay: Oxic and anoxic anti-proliferative activity of the prodrugs; assay type: cell-based; conditions: Homo sapiens, SW780; oxic conditions; read-out: Cellular Anti-proliferative IC50, SW780, Oxic
H520 cells = assay: Oxic and anoxic anti-proliferative activity of the prodrugs
SUM52 cells = assay: as above; conditions: for Hypoxic Cytotoxicity Ratio (HCR), SUM52: ratio of oxic and anoxic IC50
[2] = test system: FGFR2-amplified SUM52 breast cancer cells; assay: Cell proliferation assay (SRB); assay type: cell-based; conditions: SUM52, 120 h, read-out: Cellular Anti-proliferative IC50, SUM52, 5 days drug exposure
[3] = test system: FGFR2 in SUM52 cells (phospho-ERK1/2); assay: Drug washout Western blot assay, SUM52 cells; assay type: cell-based; conditions: SUM52, 30 min, washout prior to FGF-stimulation
Method: Cells were seeded on the day prior to drug treatment (1 million cells/well; 6-well plate).
Drug stocks were prepared in media using 1 mM or 10 mM DMSO stock solutions. Media was aspirated from each well and replaced with 2 ml of drug-free media for control wells or 2 ml of diluted drug for treated wells. Cells were exposed to drug for 30 min. Recombinant FGF (50 ng/well) was added to each well 15 minutes prior to the end of the drug exposure and protein was extracted as below.
Cells were exposed to drug for 30 min as above. Media was aspirated and each well was washed with 5 ml drug-free media. The wash media was aspirated and replaced with 2 ml drug-free media and cells incubated for a further 30 minutes, after which the wash protocol was repeated. Cells were incubated for a further 90 minutes in drug-free media. Recombinant FGF (50 ng/well) was added to each well 15 minutes prior to the end of the drug-free incubation and protein was extracted as below.
Cell lysates were prepared in 250 μL of RIPA lysis buffer containing protease inhibitor (1:100). After incubation on ice (30 min) and centrifugation (13,000 rpm, 5 min, 4° C.) the supernatants containing the proteins were stored (−20° C.) until required. Bicinchoninic acid (BCA) assay was used to determine the protein concentration of individual cell lysate samples.

[4] = test system: FGFR3 in SW780 cells (phospho-ERK1/2); assay: Drug washout Western blot assay, SW780 cells; assay type: cell-based; conditions: SW780, 30 min; for inhibition of phosphorylation of ERK1/2, no washout: then FGF-stimulation; for phospho-ERK1/2 after extensive drug washout: washout prior to FGF-stimulation
[5] = test system: FGFR3-amplified SW780 bladder cancer cells; assay: Cell proliferation assay (SRB); conditions: Homo sapiens, SW780, 120 h, read-out: Cellular Anti-proliferative IC50, SW780, 5 days drug exposure
[6] = read-out: Cellular Anti-proliferative IC50, H520, Oxic, oxic conditions
[7] = read-out: Cellular Anti-proliferative IC50, SUM52, Anoxic, 4 hours of anoxia, remainder of assay oxic
[8] = read-out: Cellular Anti-proliferative IC50, SUM52, Oxic, oxic conditions

Compound	reversible or irreversible inhibition of FGFR1 in cells [1]	pIC50 (SW780 cells)	melting point [°C]	pIC50 (H520 cells; [6])	Hypoxic Cytotoxicity Ratio (HCR), SUM52 (SUM52 cells)	pIC50 (SUM52 cells; [7])	pIC50 (SUM52 cells; [8])	also measured
COc1cc(OC)c(Cl)c(N2Cc3cnc(NC(C)C)nc3N([C@H]3CCN(C(=O)/C=C/C[N+](C)(C)Cc4c([N+](=O)[O-])ncn4C)C3)C2=O)c1Cl.[Br-] [Compound 201, (S,E)-4-(3-(3-(2,6-dichloro-3,5-dimethoxyphenyl)-7-(isopropylamino)-2-oxo-3,4-dihydropyrimido[4,5-d]pyrimidin-1(2H)-yl)pyrrolidin-1-yl)-N,N-dimethyl-N-((1-methyl-4-nitro-1H-imidazol-5-yl)methyl)-4-oxobut-2-en-1-aminium bromide]	reversible inhibitors	5.70	184 to 187	6.04	16	7.42	6.21	–
COc1cc(OC)c(Cl)c(N2Cc3cnc(NC4CCOCC4)nc3N(C3CCN(C(=O)/C=C/C[N+](C)(C)Cc4c([N+](=O)[O-])ncn4C)CC3)C2=O)c1Cl.O=C([O-])C(F)(F)F [Compound 203, (E)-4-(4-(3-(2,6-dichloro-3,5-dimethoxyphenyl)-2-oxo-7-((tetrahydro-2H-pyran-4-yl)amino)-3,4-dihydropyrimido[4,5-d]pyrimidin-1(2H)-yl)piperidin-1-yl)-N,N-dimethyl-N-((1-methyl-4-nitro-1H-imidazol-5-yl)methyl)-4-oxobut-2-en-1-aminium 2,2,2-trifluoroacetate]	–	–	157 to 160	–	26	7.43	6.02	–
COc1cc(OC)c(Cl)c(N2Cc3cnc(Nc4ccc(F)cc4)nc3N(C3CCN(C(=O)/C=C/C[N+](C)(C)Cc4c([N+](=O)[O-])ncn4C)CC3)C2=O)c1Cl.O=C([O-])C(F)(F)F [Compound 205, (E)-4-(4-(3-(2,6-dichloro-3,5-dimethoxyphenyl)-7-((4-fluorophenyl)amino)-2-oxo-3,4-dihydropyrimido[4,5-d]pyrimidin-1(2H)-yl)piperidin-1-yl)-N,N-dimethyl-N-((1-methyl-4-nitro-1H-imidazol-5-yl)methyl)-4-oxobut-2-en-1-aminium 2,2,2-trifluoroacetate]	reversible inhibitors	5.83	162 to 165	6.18	6	8.40	7.64	concentration required to suppress FGFR1 signalling through phospho-ERK1/2 [1]: > 300 nM
COc1cc(OC)c(Cl)c(-c2cc3cnc(NC(C)C)cc3n(C3CCN(C(=O)/C=C/C[N+](C)(C)Cc4c([N+](=O)[O-])ncn4C)CC3)c2=O)c1Cl.[Br-] [Compound 215, (E)-4-(4-(3-(2,6-dichloro-3,5-dimethoxyphenyl)-7-(isopropylamino)-2-oxo-1,6-naphthyridin-1(2H)-yl)piperidin-1-yl)-N,N-dimethyl-N-((1-methyl-4-nitro-1H-imidazol-5-yl)methyl)-4-oxobut-2-en-1-aminium bromide]	–	5.46	202 to 205	5.40	106	7.96	5.93	Hypoxic Cytotoxicity Ratio (HCR), H520 (H520 cells; ratio of oxic and anoxic IC50): 19; pIC50 (H520 cells; read-out: Cellular Anti-proliferative IC50, H520, Anoxic, 4 hours of anoxia, remainder of assay oxic): 6.68
COc1cc(OC)c(Br)c(-c2cc3cnc(NC(C)C)cc3n(C3CCN(C(=O)/C=C/C[N+](C)(C)Cc4c([N+](=O)[O-])ncn4C)CC3)c2=O)c1Br.[Br-] [Compound 216, (E)-4-(4-(3-(2,6-dibromo-3,5-dimethoxyphenyl)-7-(isopropylamino)-2-oxo-1,6-naphthyridin-1(2H)-yl)piperidin-1-yl)-N,N-dimethyl-N-((1-methyl-4-nitro-1H-imidazol-5-yl)methyl)-4-oxobut-2-en-1-aminium bromide]	–	–	219	–	59	8.22	6.46	–
COc1cc(OC)c(Cl)c(N2Cc3cnc(Nc4ccccc4)nc3N(C3CCN(C(=O)/C=C/C[N+](C)(C)Cc4c([N+](=O)[O-])ncn4C)CC3)C2=O)c1.[Br-] [Compound 217, (E)-4-(4-(3-(2-chloro-3,5-dimethoxyphenyl)-2-oxo-7-(phenylamino)-3,4-dihydropyrimido[4,5-d]pyrimidin-1(2H)-yl)piperidin-1-yl)-N,N-dimethyl-N-((1-methyl-4-nitro-1H-imidazol-5-yl)methyl)-4-oxobut-2-en-1-aminium bromide]	–	–	181 to 184	–	7	8.40	7.62	–
COc1cc(OC)c(Cl)c(N2Cc3cnc(Nc4ccc(N5CCOCC5)cc4)nc3N(C3CCN(C(=O)/C=C/C[N+](C)(C)Cc4c([N+](=O)[O-])ncn4C)CC3)C2=O)c1Cl.[Br-] [Compound 218, (E)-4-(4-(3-(2,6-dichloro-3,5-dimethoxyphenyl)-7-((4-morpholinophenyl)amino)-2-oxo-3,4-dihydropyrimido[4,5-d]pyrimidin-1(2H)-yl)piperidin-1-yl)-N,N-dimethyl-N-((1-methyl-4-nitro-1H-imidazol-5-yl)methyl)-4-oxobut-2-en-1-aminium bromide]	–	–	> 295	–	4	8.52	7.85	–
COc1cc(OC)c(Cl)c(N2Cc3cnc(Nc4ccc(N5CCOCC5)cc4)nc3N(C3CCN(C(=O)/C=C/C[N+](C)(C)Cc4c([N+](=O)[O-])ncn4C)CC3)C2=O)c1.[Br-] [Compound 219, (E)-4-(4-(3-(2-chloro-3,5-dimethoxyphenyl)-7-((4-morpholinophenyl)amino)-2-oxo-3,4-dihydropyrimido[4,5-d]pyrimidin-1(2H)-yl)piperidin-1-yl)-N,N-dimethyl-N-((1-methyl-4-nitro-1H-imidazol-5-yl)methyl)-4-oxobut-2-en-1-aminium bromide]	–	–	241 to 244	–	22	8.70	7.28	–
COc1cc(OC)cc(N2Cc3cnc(Nc4ccc(N5CCOCC5)cc4)nc3N(C3CCN(C(=O)/C=C/C[N+](C)(C)Cc4c([N+](=O)[O-])ncn4C)CC3)C2=O)c1.[Br-] [Compound 220, (E)-4-(4-(3-(3,5-dimethoxyphenyl)-7-((4-morpholinophenyl)amino)-2-oxo-3,4-dihydropyrimido[4,5-d]pyrimidin-1(2H)-yl)piperidin-1-yl)-N,N-dimethyl-N-((1-methyl-4-nitro-1H-imidazol-5-yl)methyl)-4-oxobut-2-en-1-aminium bromide]	–	–	192 to 195	–	48	7.44	5.76	–
CCN(CC)CCCCNc1ncc2cc(-c3cc(OC)cc(OC)c3)c(NC(=O)NC(C)(C)C)nc2n1 [PD173074, reference compound]	potent reversible inhibitor	–	–	–	–	–	–	pIC50 [2]: 7.92; phospho-ERK1/2 after extensive drug washout ([1]; 100 nM): restoration; phospho-ERK1/2 after extensive drug washout ([1]; 1000 nM): restoration; concentration required to suppress FGFR1 signalling through phospho-ERK1/2 [1]: ≤ 100 nM; phospho-ERK1/2 after extensive drug washout ([3]; 100 nM): restoration; phospho-ERK1/2 after extensive drug washout ([3]; 1000 nM): restoration; inhibition of phosphorylation of ERK1/2, no washout ([4]; 100 nM): less effective; phospho-ERK1/2 after extensive drug washout ([4]; 100 nM): restoration; inhibition of phosphorylation of ERK1/2, no washout ([4]; 1000 nM): complete inhibition; phospho-ERK1/2 after extensive drug washout ([4]; 1000 nM): restoration; pIC50 [5]: 7.08
